Converted amounts (≈) assume the structure as drawn.
What was measured:
[1] = test system: Mycobacterium smegmatis CCM 4622 (ATCC 607); assay: Antimycobacterial screening, microdilution broth panel method with resazurin; assay type: cell-based; details: Mycolicibacterium smegmatis, 48 h + 4 h
Experimental: An antimycobacterial assay was performed with fast growing Mycobacterium smegmatis CCM 4622 (ATCC 607) from the Czech Collection of Microorganisms (Brno, Czech Republic). The technique used for activity determination was a microdilution broth panel method using 96-well microtitration plates. The culturing medium was Middlebrook 7H9 (MB) broth (Sigma-Aldrich), enriched with 0.4% of glycerol (Sigma-Aldrich) and 10% of Middlebrook OADC growth supplement (Himedia, Mumbai, India). Tested compounds were dissolved in DMSO (Sigma-Aldrich), and the MB broth was then added to obtain a concentration of 2000 μg·mL^−1. Standards used for activity determination were isoniazid (INH), rifampicin (RIF), and ciprofloxacin (CPX) (Sigma-Aldrich). Final concentrations were reached by binary dilution and the addition of mycobacterial suspension, and were set as 500, 250, 125, 62.5, 31.25, 15.625, 7.81, and 3.91 μg·mL^−1, except for the standards of ciprofloxacin and rifampicin, where the final concentrations were 12.5, 6.25, 3.125, 1.56, 0.78, 0.39, 0.195, and 0.098 μg·mL^−1. […] Plates were also sealed with polyester adhesive film and incubated in the dark at 37 °C, without agitation. The addition of 0.01% solution of resazurin sodium salt followed after 48 h. This stain was prepared by dissolving resazurin sodium salt (Sigma-Aldrich) in deionised water, producing a 0.02% solution. Then, a 10% aqueous solution of Tween 80 (Sigma-Aldrich) was prepared. Both liquids were mixed up making use of the same volumes and filtered through a syringe membrane filter. Microtitration panels were then incubated for a further 4 h. Antimycobacterial activity was expressed as the minimal inhibition concentration (MIC) and the value was read on the basis of stain colour change (blue colour—active compound; pink colour—not active compound). […] All experiments were conducted in duplicate.

[2] = Determination of lipophilicity by RP-HPLC (log k); details: RP-HPLC capacity factor, MeOH 70% / H2O 30%, C18, 30 °C
Experimental: Log k was determined using an Agilent Technologies 1200 SL liquid chromatograph with Diode-array Detector SL G1315C (Agilent Technologies Inc., Colorado Springs, CO, USA), with pre-column ZORBAX XDB-C18 5 μm, 4 mm × 4 mm, Part No. 7995118-504 (Agilent Technologies Inc.) and column ZORBAX Eclipse XDB-C18 5 μm, 4.6 mm × 250 mm, Part No. 7995118-585 (Agilent Technologies Inc.). The separation process was controlled by Agilent ChemStation, version B.04.02, extended by a spectral module (Agilent Technologies Inc.). The mobile phase consisted of MeOH (HPLC grade, 70%) and H2O (HPLC-Milli-Q Grade, 30%).
The flow rate was 1.0 mL/min, samples were injected in a volume of 20 μL, and the column temperature was 30 °C. A value of 210 nm as the detection wavelength and 270 nm as the monitor wavelength were used. Retention times (tR) were measured in minutes. The dead time of the system (tD) was determined as the retention time of the KI methanol solution. Capacity factors k for individual compounds were calculated according to the formula k = (tR − tD)/tD. Log k, calculated from the capacity factor k, as used as the lipophilicity index converted to log scale.

[3] = Cytotoxicity assay, CellTiter 96 Aqueous One Solution; assay type: cell-based; details: human, HepG2 cells; for IC50 at 24 h: 24 h exposure
Experimental: The human liver hepatocellular carcinoma cell line HepG2 (passage 35–36), purchased from Health Protection Agency Culture Collections (ECACC, Salisbury, UK), was routinely cultured in Minimum Essential Eagle Medium MEM (Sigma-Aldrich) supplemented with 10% fetal bovine serum (PAA Laboratories GmbH, Pasching, Austria), 2mM L-glutamine solution (Sigma-Aldrich), and 1% non-essential amino acid solution (Sigma-Aldrich), in a humidified atmosphere containing 5% CO2 at 37 °C.
For subculturing, the cells were harvested after trypsin/EDTA (Sigma-Aldrich) treatment at 37 °C. To evaluate the cytotoxicity, the HepG2 cells treated with the tested substances were used as experimental groups, whereas untreated HepG2 cells served as control groups.
The HepG2 cells were seeded in a density of 1 × 10^4 cells per well on a 96-well plate. The following day (24 h after seeding), they were treated with tested substances dissolved in DMSO (maximal incubation concentration of DMSO was 1%). […] The treatment was carried out in a humidified atmosphere containing 5% CO2 at 37 °C, in triplicate, for 24 h. The controls representing 100% cell viability, 0% cell viability (the cells treated with 10% DMSO), no-cell controls, and vehiculum controls were incubated in triplicate, simultaneously. After 24 h exposure, the reagent from the kit CellTiter 96® Aqueous One Solution Cell Proliferation Assay (Promega) was added, according to the recommendation of the manufacturer. After 2 h incubation at 37 °C in humidified, 5% CO2 atmosphere, the absorbance was recorded at 490 nm. Inhibitory curves were constructed for each compound, plotting incubation concentrations vs. percentage of absorbance relative to untreated control. The standard toxicological parameter IC50 was calculated by a nonlinear regression analysis of the inhibitory curves using GraphPad Prism software (version 6, GraphPad Software, Inc., La Jolla, CA, USA).

[4] = test system: Mycobacterium tuberculosis H37Rv; assay: Microplate Alamar Blue Assay (MABA), microdilution panel method; assay type: cell-based
[5] = test system: Staphylococcus epidermidis H 6966/08; assay: Antibacterial microdilution broth method; assay type: cell-based; details: Staphylococcus epidermidis, H6966/08, 24 h; read-out: MIC after 24 h S. epidermidis
Experimental: (§1) Microdilution broth method. Antibacterial evaluation was performed against eight bacterial strains from the Czech Collection of Microorganisms (Brno, Czech Republic) (Staphylococcus aureus CCM 4516/08, Escherichia coli CCM 4517, Pseudomonas aeruginosa CCM 1961) or clinical isolates from the Department of Clinical Microbiology, University Hospital and Faculty of Medicine in Hradec Králové, Charles University in Prague, Czech Republic (Staphylococcus aureus H 5996/08-methicilin resistant (MRSA), Staphylococcus epidermidis H 6966/08, Enterococcus sp. J 14365/08, Klebsiella pneumoniae D 11750/08, Klebsiella pneumoniae J 14368/08-ESBL positive). All strains were subcultured on Mueller-Hinton agar (MHA) (Difco/Becton Dickinson, Detroit, MI, USA) at 35 °C and maintained on the same medium at 4 °C. The compounds were dissolved in DMSO, and the antibacterial activity was determined in Mueller-Hinton liquid broth (Difco/Becton Dickinson), and buffered to pH 7.0. Controls consisted of medium and DMSO alone. […] The minimum inhibitory concentration (MIC), defined as the minimum concentration to prevent the visible growth compared to control, was determined after 24 and 48 h of static incubation at 35 °C. The standards were neomycin, bacitracin, penicillin G, ciprofloxacin, and phenoxymethylpenicillin.

[6] = test system: Staphylococcus aureus CCM 4516/08; assay: Antibacterial microdilution broth method; assay type: cell-based; details: CCM4516, 24 h, read-out: MIC after 24 h S. aureus
Experimental: as §1

[7] = test system: Staphylococcus aureus H 5996/08-methicilin resistant (MRSA); assay: Antibacterial microdilution broth method; assay type: cell-based; details: Staphylococcus aureus, MRSA, 24 h; read-out: MIC after 24 h MRSA
Experimental: as §1

[8] = test system: M. kansasii Hauduroy CNCTC My 235/80; assay: Microplate Alamar Blue Assay (MABA), microdilution panel method; assay type: cell-based; details: Mycobacterium kansasii
[9] = test system: M. avium ssp. avium Chester CNCTC My 80/72; assay: as above; assay type: cell-based; details: Mycobacterium avium

Compound	MIC [1]	Log k [2]	IC50 at 24 h [3]	MIC ([4]; pH 6.6)	MIC ([4]; value in parentheses)	MIC [5]	MIC [6]	MIC [7]	selectivity ratio at 24 h ([3]; HepG2 IC50 / MIC S. aureus, read-out: selectivity index, SI = IC50/MIC)	MIC [8]	MIC [9]
O=C(NCc1ccc(Cl)c(Cl)c1)c1nccnc1NCc1ccc(Cl)c(Cl)c1 [Compound 9a, N-(3,4-Dichlorobenzyl)-3-((3,4-dichlorobenzyl)amino)pyrazine-2-carboxamide]	> 500 µg/mL	1.997	> 100 µM	12.5 µg/mL	27 µM	–	–	–	–	–	–
COc1ccc(CNC(=O)c2nccnc2NCc2ccc(OC)cc2)cc1 [Compound 3a, N-(4-Methoxybenzyl)-3-((4-methoxybenzyl)amino)pyrazine-2-carboxamide]	> 500 µg/mL	0.981	> 100 µM	50 µg/mL	132 µM	> 500 µM	15.6 µM (≈ 5.91 µg/mL)	62.5 µM (≈ 23.7 µg/mL)	–	–	–
O=C(NCc1ccccc1Cl)c1nccnc1Cl [Compound 5, 3-Chloro-N-(2-chlorobenzyl)pyrazine-2-carboxamide]	250 µg/mL	0.033	847 µM	> 100 µg/mL	–	15.6 µM (≈ 4.41 µg/mL)	7.81 µM (≈ 2.2 µg/mL)	500 µM (≈ 141 µg/mL)	108	–	–
O=C(NCc1ccc(Cl)cc1)c1nccnc1NCc1ccc(Cl)cc1 [Compound 7a, N-(4-Chlorobenzyl)-3-((4-chlorobenzyl)amino)pyrazine-2-carboxamide]	> 250 µg/mL	1.533	–	> 50 µg/mL	–	–	–	–	–	> 50 µg/mL	> 50 µg/mL
NNC(=O)c1ccncc1 [INH, isoniazid, reference compound]	7.81 to 15.6 µg/mL	–	–	0.2 µg/mL	–	–	–	–	–	3.13 to 12.5 µg/mL (≈ 22.8 to 91.1 µM)	6.25 to 12.5 µg/mL (≈ 45.6 to 91.1 µM)

Source: PMC6155222, “3-Substituted N-Benzylpyrazine-2-carboxamide Derivatives: Synthesis, Antimycobacterial and Antibacterial Evaluation” (Molecules : A Journal of Synthetic Chemistry and Natural …, 2017)
